For the test, the target named is T1, recombinant His-tag Y220C p53 DBD protein (Homo sapiens, UniProt P04637, Y220C).
T1 construct: recombinant His-tag Y220C p53 DBD protein (amino acids #˜94-312)
The test is described as follows: In vitro DNA binding activity assay (TR-FRET): binding of His-tag Y220C p53 DBD to biotin-labeled consensus DNA. It is filed as biochemical. The settings on record: for Y220C SC150 (μM): SC150 = concentration to increase DNA binding by […], His-tag Y220C p53 DBD, biotin-labeled consensus DNA; for SC150 (μM): concentration to increase DNA binding by […], incubated at either 27° C. or 29° C. for 60 min. As to the method: DNA binding activity of the compounds was measured using a TR-FRET (Time-Resolved Fluorescence Resonance Energy Transfer) assay in which recombinant His-tag Y220C p53 DBD protein binds to biotin-labeled consensus DNA. Binding of recombinant His-tag Y220C p53 DBD protein and biotin-labeled consensus DNA was registered by the FRET (fluorescence resonance energy transfer) between allophycocyanin (APC) conjugated anti-His tag antibody and Europium-(Eu) conjugated Streptavidin.
The compounds of TABLES 1-9 (2 mM stock in dimethylsulfoxide) were diluted 3-fold in series in dimethylsulfoxide. 1.2 μL of a compound solution was added to each well of 384-well polypropylene black plates (NUNC). Thirty μL per well of 181 nM recombinant His-tag Y220C p53 DBD protein (amino acids #˜94-312; SEQ ID NO: 1) and 6.1 nM of APC conjugated anti-His tag antibody (Columbia Biosciences) in ice-cold Assay Buffer 1 (50 mM Tris-HCl, pH 7.4, 75 mM KCl, 0.75 mM DTT and 0.2 mg/ml, BSA) were added. As a background control. 30 μL of Assay Buffer 1 containing 6.1 nM of APC anti-His antibody (No Y220C protein) was also added into a second set of serially diluted compound plates. The samples were spun by centrifuge at 1,200 rpm (Eppendorf 5810R Plate centrifuge) for 1 minute and incubated at room temperature (20° C.) for 15 min. The samples were then further incubated at either 27° C. or 29° C. for 60 min. […] The samples were spun by centrifuge at 1,200 rpm for 1 min and incubated at room temperature (20° C.) for 20 min. Assay signals were monitored by reading excitation at 340 nm, and emission fluorescence at 615 nm and 665 nm on an Envision® reader. Normalized TR-FRET (time-resolved fluorescence resonance energy transfer) assay signal (Rn) was calculated by the formula: Rn=[(A−Ba−C×(D−Bd))/(D−Bd)]×(D−Bd) Wherein: • A is the fluorescence intensity of the sample at 665 nm; • D is the fluorescence intensity of the sample at 615 nm; • Ba and Bd are plate backgrounds at 665 nm and 615 nm, respectively; and • Dc is the fluorescence intensity of 0.67 nM Eu-SA in the assay buffer at 615 nm.
The cross-talk factor (C) was determined by the following formula: C=(Ac−Ba)/(Dc−Bd) wherein Ac is the fluorescence intensity of 0.67 nM Europium (Eu) conjugated Streptavidin in the assay buffer at 665 nm.
For orientation: Time-resolved FRET reads energy transfer from a long-lived donor to a nearby acceptor.

Consider `CC(C)(C)n1cc(C(=O)NCc2nc(-c3cc4c(N[C@@H]5CCOC[C@@H]5F)cccc4n3CC(F)(F)F)no2)cn1` [Compound 497B, 1-tert-butyl-N-{[3-(4-{[(3R,4R)-3-fluorooxan-4-yl]amino}-1-(2,2,2-trifluoroethyl)-1H-indol-2-yl)-1,2,4-oxadiazol-5-yl]methyl}-1H-pyrazole-4-carboxamide], for which the “Y220C SC150 (μM)” value is “* (* = 0 μM ≤ SC150 < 0.1 μM)”.
With `CN1CC[C@@H](Nc2cccc3c2cc(-c2noc(CNC(=O)c4cncn4C(C)(C)C)n2)n3CC(F)(F)F)[C@@H](F)C1` [Compound 270B, 1-tert-butyl-N-{[3-(4-{[(3S,4R)-3-fluoro-1-methylpiperidin-4-yl]amino}-1-(2,2,2-trifluoroethyl)-1H-indol-2-yl)-1,2,4-oxadiazol-5-yl]methyl}-1H-imidazole-5-carboxamide], the “Y220C SC150 (μM)” value was “* (* = 0 μM ≤ SC150 < 0.1 μM)”.
Take `CNC(=O)NCc1nnc(-c2cc3c(NC4CCN(C)CC4)cccc3n2CC(F)(F)F)s1` [Compound 56B, 3-methyl-1-[(5-{4-[(1-methylpiperidin-4-yl)amino]-1-(2,2,2-trifluoroethyl)-1H-indol-2-yl}-1,3,4-thiadiazol-2-yl)methyl]urea]: the “Y220C SC150 (μM)” value is recorded as “** (** = 0.1 μM ≤ SC150 < 0.5 μM)”.
With `CN1CCC(Nc2cccc3c2cc(-c2nnc(CNC(=O)c4ccncc4)s2)n3CC(F)(F)F)CC1` [Compound 49B, N-[(5-{4-[(1-methylpiperidin-4-yl)amino]-1-(2,2,2-trifluoroethyl)-1H-indol-2-yl}-1,3,4-thiadiazol-2-yl)methyl]pyridine-4-carboxamide], the “Y220C SC150 (μM)” value was “** (** = 0.1 μM ≤ SC150 < 0.5 μM)”.
Turning to `CC(=O)NCc1nnc(-c2cc3c(NC4CCN(C)CC4)cccc3n2CC(F)(F)F)s1` [Compound 58B, N-[(5-{4-[(1-methylpiperidin-4-yl)amino]-1-(2,2,2-trifluoroethyl)-1H-indol-2-yl}-1,3,4-thiadiazol-2-yl)methyl]acetamide], the “Y220C SC150 (μM)” value is “** (** = 0.1 μM ≤ SC150 < 0.5 μM)”.
On to `CN1CC[C@@H](Nc2cccc3c2cc(-c2noc(CNC(=O)c4cnn(Cc5ccccc5)c4)n2)n3CC(F)(F)F)[C@@H](F)C1` [Compound 300B, 1-benzyl-N-{[3-(4-{[(3S,4R)-3-fluoro-1-methylpiperidin-4-yl]amino}-1-(2,2,2-trifluoroethyl)-1H-indol-2-yl)-1,2,4-oxadiazol-5-yl]methyl}-1H-pyrazole-4-carboxamide], for which the “Y220C SC150 (μM)” value is given as “* (* = 0 μM ≤ SC150 < 0.1 μM)”.
As to `CN1CC[C@@H](Nc2cccc3c2cc(-c2noc(CNC(=O)c4cnn(C5CCC5)c4)n2)n3CC(F)(F)F)[C@@H](F)C1` [Compound 369B, 1-cyclobutyl-N-{[3-(4-{1[(3S,4R)-3-fluoro-1-methylpiperidin-4-yl]amino}-1-(2,2,2-trifluoroethyl)-1H-indol-2-yl)-1,2,4-oxadiazol-5-yl]methyl}-1H-pyrazole-4-carboxamide], the “Y220C SC150 (μM)” value is recorded as “* (* = 0 μM ≤ SC150 < 0.1 μM)”.
Take `CCN1CC[C@@H](Nc2cccc3c2cc(-c2noc(CNC(=O)c4ccn(C(C)(C)C)c4)n2)n3CC(F)(F)F)[C@@H](F)C1` [Compound 298B, 1-tert-butyl-N-{[3-(4-{[(3S,4R)-1-ethyl-3-fluoropiperidin-4-yl]amino}-1-(2,2,2-trifluoroethyl)-1H-indol-2-yl)-1,2,4-oxadiazol-5-yl]methyl}-1H-pyrrole-3-carboxamide]: the “Y220C SC150 (μM)” value is given as “* (* = 0 μM ≤ SC150 < 0.1 μM)”.
For the molecule `CN1CCC(Nc2cccc3c2cc(-c2ccc(C(N)c4ccccc4)cc2)n3CC(F)(F)F)CC1` (centres unmarked) [Compound 38A, 2-{4-[amino(phenyl)methyl]phenyl}-N-(1-methylpiperidin-4-yl)-1-(2,2,2-trifluoroethyl)-1H-indol-4-amine], the “SC150 (μM)” value is recorded as “+++ (+++ = 5 μM ≤ SC150 < 10 μM)”.
As to `CN1CC[C@@H](Nc2cccc3c2cc(-c2noc(CNC(=O)c4ccn([C@H]5CC[C@@](C)(O)C5)c4)n2)n3CC(F)(F)F)[C@@H](F)C1` (stereo in doubt) [Compound 374B, Cis-N-{[3-(4-{[(3S,4R)-3-fluoro-1-methylpiperidin-4-yl]amino}-1-(2,2,2-trifluoroethyl)-1H-indol-2-yl)-1,2,4-oxadiazol-5-yl]methyl}-1-[(1R,3S)-3-hydroxy-3-methylcyclopentyl]-1H-pyrrole-3-carboxamide], the “Y220C SC150 (μM)” value is “* (* = 0 μM ≤ SC150 < 0.1 μM)”.
Turning to `CN1CC[C@@H](Nc2cccc3c2cc(-c2noc(CNC(=O)c4cnn(C5CCOC5)c4)n2)n3CC(F)(F)F)[C@@H](F)C1` (stereo partly drawn) [Compound 321B, N-{[3-(4-{[(3S,4R)-3-fluoro-1-methylpiperidin-4-yl]amino}-1-(2,2,2-trifluoroethyl)-1H-indol-2-yl)-1,2,4-oxadiazol-5-yl]methyl}-1-(oxolan-3-yl)-1H-pyrazole-4-carboxamide], the “Y220C SC150 (μM)” value is recorded as “* (* = 0 μM ≤ SC150 < 0.1 μM)”.
Regarding `CN1CC[C@@H](Nc2cccc3c2cc(-c2noc(CNC(=O)c4ccc(N(C)C)nc4)n2)n3CC(F)(F)F)[C@@H](F)C1` [Compound 557B, 6-(dimethylamino)-N-{[3-(4-{[(3S,4R)-3-fluoro-1-methylpiperidin-4-yl]amino}-1-(2,2,2-trifluoroethyl)-1H-indol-2-yl)-1,2,4-oxadiazol-5-yl]methyl}pyridine-3-carboxamide], the “Y220C SC150 (μM)” value is “* (* = 0 μM ≤ SC150 < 0.1 μM)”.
For the molecule `N#Cc1cccc(-c2cc3c(NC4CCS(=O)(=O)CC4)cccc3n2CC(F)(F)F)c1` [Compound 10A, 3-{4-[(1,1-dioxo-1λ^6-thian-4-yl)amino]-1-(2,2,2-trifluoroethyl)-1H-indol-2-yl}benzonitrile], the “SC150 (μM)” value is reported as “++++ (++++ = 10 μM ≤ SC150 < 35 μM)”.
On to `CN1CC[C@@H](Nc2cccc3c2cc(-c2noc(CNC(=O)c4ccc(N5CCOCC5)cc4)n2)n3CC(F)(F)F)[C@@H](F)C1` [Compound 260B, N-{[3-(4-{[(3S,4R)-3-fluoro-1-methylpiperidin-4-yl]amino}-1-(2,2,2-trifluoroethyl)-1H-indol-2-yl)-1,2,4-oxadiazol-5-yl]methyl}-4-(morpholin-4-yl)benzamide], for which the “Y220C SC150 (μM)” value was “* (* = 0 μM ≤ SC150 < 0.1 μM)”.
On to `COc1ccccc1C(=O)NCc1nnc(-c2cc3c(N[C@H]4CCN(C)C[C@H]4F)cccc3n2CC(F)(F)F)o1` (racemic) [Compound 115B, (+/−)-N-{[5-(4-{[(3R,4S)-3-fluoro-1-methylpiperidin-4-yl]amino}-1-(2,2,2-trifluoroethyl)-1H-indol-2-yl)-1,3,4-oxadiazol-2-yl]methyl}-2-methoxybenzamide], for which the “Y220C SC150 (μM)” value is recorded as “** (** = 0.1 μM ≤ SC150 < 0.5 μM)”.
As to `CN1CCC(Nc2cccc3c2cc(-c2nnc(CNC(=O)C4(F)CC4)s2)n3CC(F)(F)F)CC1` [Compound 31B, 1-fluoro-N-[(5-{4-[(1-methylpiperidin-4-yl)amino]-1-(2,2,2-trifluoroethyl)-1H-indol-2-yl}-1,3,4-thiadiazol-2-yl)methyl]cyclopropane-1-carboxamide], the “Y220C SC150 (μM)” value was “** (** = 0.1 μM ≤ SC150 < 0.5 μM)”.
Take `CN1CC[C@@H](Nc2cccc3c2cc(-c2noc(CNC(=O)c4ccn(C5CCOCC5)c4)n2)n3CC(F)(F)F)[C@@H](F)C1` [Compound 335B, N-{[3-(4-{[(3S,4R)-3-fluoro-1-methylpiperidin-4-yl]amino}-1-(2,2,2-trifluoroethyl)-1H-indol-2-yl)-1,2,4-oxadiazol-5-yl]methyl}-1-(oxan-4-yl)-1H-pyrrole-3-carboxamide]: the “Y220C SC150 (μM)” value is on record as “* (* = 0 μM ≤ SC150 < 0.1 μM)”.
As for `CN1CCC(Nc2cccc3c2cc(-c2ncc(CNC(=O)C4CC4)s2)n3CC(F)(F)F)CC1` [Compound 94B, N-[(2-{4-[(1-methylpiperidin-4-yl)amino]-1-(2,2,2-trifluoroethyl)-1H-indol-2-yl}-1,3-thiazol-5-yl)methyl]cyclopropanecarboxamide], the “Y220C SC150 (μM)” value is recorded as “* (* = 0 μM ≤ SC150 < 0.1 μM)”.
Regarding `CN1CCC(Nc2cccc3c2cc(-c2nnc(CNc4ccc(S(C)(=O)=O)cc4)o2)n3CC(F)(F)F)CC1` [Compound 111B, 2-(5-{[(4-methanesulfonylphenyl)amino]methyl}-1,3,4-oxadiazol-2-yl)-N-(1-methylpiperidin-4-yl)-1-(2,2,2-trifluoroethyl)-1H-indol-4-amine], the “Y220C SC150 (μM)” value is “** (** = 0.1 μM ≤ SC150 < 0.5 μM)”.
As to `CC(C)(C)n1ccc(C(=O)NCc2nc(-c3cc4c(N[C@@H]5CCCC[C@H]5F)cccc4n3CC(F)(F)F)no2)c1` (racemic) [Compound 340B], the “Y220C SC150 (μM)” value is given as “** (** = 0.1 μM ≤ SC150 < 0.5 μM)”.

Source of the values: patent US11807644B2 (PMV Pharmaceuticals, Inc., priority 2020, dated 2023).
